Patent US20260297085A1, “1 H-PYRROLO[2,3-B]PYRIDIN-4-YL]-2-OXOPYRROLIDINE-3-CARBONITRILE DERIVATIVES AS TYROSINE KINASE 2 (TYK2) INHIBITORS FOR THE TREATMENT OF INFLAMMATORY DISEASES” (BIOGEN MA INC., priority 2023, published 2026)
Structures can show the parent of a compound that is named as a salt.

Legend:
[1] = target: T1, human TYK2 kinase domain (JH1) (Homo sapiens, UniProt P29597); assay: JH1 biochemical assay for TYK2 (ADP-Glo kinase assay, recombinant JH1 catalytic domain, JAK3-974 peptide, 10 μM ATP); conditions: JH1 kinase domain, ADP-Glo
T1 construct: recombinantly generated catalytic kinase (also known as JH1) domain of human JAK1, JAK2, JAK3 and TYK2
T1 sequence (P29597 897-1176 limits assumed): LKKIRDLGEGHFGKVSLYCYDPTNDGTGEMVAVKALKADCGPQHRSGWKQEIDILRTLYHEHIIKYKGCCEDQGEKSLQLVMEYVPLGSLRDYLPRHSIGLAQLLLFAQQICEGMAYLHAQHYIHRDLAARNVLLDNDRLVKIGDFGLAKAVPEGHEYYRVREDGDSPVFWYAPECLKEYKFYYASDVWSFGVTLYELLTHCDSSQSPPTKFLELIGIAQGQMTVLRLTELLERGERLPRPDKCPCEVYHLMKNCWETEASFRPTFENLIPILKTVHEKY
Summary of the method: (§1)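 Kinase 4 nM JAK1 / 0.2 nM JAK2 / 0.3 nM JAK3 / 2 nM TYK2; 50 μM peptide; 100 min. Unused ATP depleted, ADP→ATP, luciferase luminescence. 11-pt 3-fold series from 10 or 1 μM; normalized, 4PL fit → IC50.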

[2] = target: T2, human JAK1 kinase domain (JH1) (Homo sapiens, UniProt P23458); assay: JH1 biochemical assay for JAK1 (ADP-Glo kinase assay, recombinant JH1 catalytic domain, JAK3-342 peptide, 35 μM ATP); conditions: JH1 kinase domain, ADP-Glo
T2 construct: recombinantly generated catalytic kinase (also known as JH1) domain of human JAK1, JAK2, JAK3 and TYK2
T2 sequence (P23458 875-1153 limits assumed): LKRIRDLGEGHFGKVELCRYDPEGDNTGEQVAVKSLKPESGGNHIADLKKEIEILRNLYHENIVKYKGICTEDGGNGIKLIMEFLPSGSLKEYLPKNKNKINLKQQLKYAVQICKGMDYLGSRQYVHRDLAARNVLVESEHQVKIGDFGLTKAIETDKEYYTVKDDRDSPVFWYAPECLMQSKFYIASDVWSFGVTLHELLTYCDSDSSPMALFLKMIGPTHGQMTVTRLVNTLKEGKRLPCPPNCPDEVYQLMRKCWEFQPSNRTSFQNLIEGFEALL
Summary of the method: as §1

[3] = target: T3, human JAK2 kinase domain (JH1) (Homo sapiens, UniProt O60674); assay: JH1 biochemical assay for JAK2 (ADP-Glo kinase assay, recombinant JH1 catalytic domain, JAK3-974 peptide, 15 μM ATP); conditions: JH1 kinase domain, ADP-Glo
T3 construct: recombinantly generated catalytic kinase (also known as JH1) domain of human JAK1, JAK2, JAK3 and TYK2
T3 sequence (O60674 849-1124 limits assumed): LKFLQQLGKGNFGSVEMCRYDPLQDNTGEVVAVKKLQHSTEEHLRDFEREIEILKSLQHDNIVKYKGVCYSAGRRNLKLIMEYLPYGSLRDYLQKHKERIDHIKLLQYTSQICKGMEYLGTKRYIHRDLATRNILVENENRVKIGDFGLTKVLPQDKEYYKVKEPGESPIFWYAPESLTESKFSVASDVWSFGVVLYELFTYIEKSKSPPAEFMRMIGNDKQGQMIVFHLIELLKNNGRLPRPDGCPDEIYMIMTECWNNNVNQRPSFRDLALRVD
Summary of the method: as §1

[4] = target: T4, human JAK3 kinase domain (JH1) (Homo sapiens, UniProt P52333); assay: JH1 biochemical assay for JAK3 (ADP-Glo kinase assay, recombinant JH1 catalytic domain, JAK3-974 peptide, 4 μM ATP); conditions: JH1 kinase domain, ADP-Glo
T4 construct: recombinantly generated catalytic kinase (also known as JH1) domain of human JAK1, JAK2, JAK3 and TYK2
T4 sequence (P52333 822-1111 limits assumed): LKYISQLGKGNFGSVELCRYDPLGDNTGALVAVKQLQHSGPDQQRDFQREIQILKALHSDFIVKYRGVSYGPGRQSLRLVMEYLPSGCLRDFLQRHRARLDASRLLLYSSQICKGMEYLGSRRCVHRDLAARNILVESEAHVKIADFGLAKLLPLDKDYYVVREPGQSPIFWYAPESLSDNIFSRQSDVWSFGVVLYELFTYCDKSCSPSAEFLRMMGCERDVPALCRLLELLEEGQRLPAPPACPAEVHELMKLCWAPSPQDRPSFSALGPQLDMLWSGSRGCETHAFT
Summary of the method: as §1

[5] = target: Tyk2 kinase activity on STAT4 in NK92 cells (Homo sapiens, UniProt P29597); assay: pSTAT4 cell assay (MSD; NK92 cells, 30 ng/mL IL2 stimulation); format: cell-based; conditions: 30 ng/mL IL2, 15 minutes
Tyk2 kinase activity on STAT4 in NK92 cells, sequence (P29597 whole entry): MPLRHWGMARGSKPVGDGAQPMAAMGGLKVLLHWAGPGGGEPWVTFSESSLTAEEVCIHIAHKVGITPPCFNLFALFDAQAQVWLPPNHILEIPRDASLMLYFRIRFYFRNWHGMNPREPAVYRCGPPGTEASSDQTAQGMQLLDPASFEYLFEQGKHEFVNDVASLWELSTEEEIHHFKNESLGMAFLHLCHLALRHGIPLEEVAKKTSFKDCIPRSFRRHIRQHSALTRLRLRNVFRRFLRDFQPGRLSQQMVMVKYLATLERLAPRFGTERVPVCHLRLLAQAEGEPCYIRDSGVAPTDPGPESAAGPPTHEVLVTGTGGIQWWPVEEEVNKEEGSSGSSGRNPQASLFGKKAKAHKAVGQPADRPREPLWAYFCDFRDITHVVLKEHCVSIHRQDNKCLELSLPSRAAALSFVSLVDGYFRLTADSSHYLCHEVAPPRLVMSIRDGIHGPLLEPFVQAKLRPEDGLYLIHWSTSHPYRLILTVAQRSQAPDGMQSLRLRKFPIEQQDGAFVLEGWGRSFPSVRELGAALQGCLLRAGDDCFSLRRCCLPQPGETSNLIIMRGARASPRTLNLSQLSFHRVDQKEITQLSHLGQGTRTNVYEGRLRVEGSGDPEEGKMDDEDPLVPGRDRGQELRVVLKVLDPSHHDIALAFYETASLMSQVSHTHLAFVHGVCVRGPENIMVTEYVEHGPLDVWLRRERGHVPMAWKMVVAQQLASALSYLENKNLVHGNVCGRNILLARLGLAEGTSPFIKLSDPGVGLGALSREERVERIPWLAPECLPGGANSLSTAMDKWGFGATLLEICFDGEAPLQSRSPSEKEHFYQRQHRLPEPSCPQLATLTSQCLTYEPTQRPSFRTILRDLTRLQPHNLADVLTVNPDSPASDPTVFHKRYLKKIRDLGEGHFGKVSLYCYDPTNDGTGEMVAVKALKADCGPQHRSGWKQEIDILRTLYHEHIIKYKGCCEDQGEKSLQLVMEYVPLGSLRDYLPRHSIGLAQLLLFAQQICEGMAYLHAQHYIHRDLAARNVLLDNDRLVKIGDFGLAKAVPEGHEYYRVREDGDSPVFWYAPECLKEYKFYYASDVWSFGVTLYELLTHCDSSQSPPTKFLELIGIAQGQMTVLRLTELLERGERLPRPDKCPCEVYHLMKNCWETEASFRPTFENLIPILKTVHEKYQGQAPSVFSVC
Summary of the method: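 IC50 values derive from 4-parameter logistic fits of normalized percent activity against log compound concentration. Phospho-STAT was measured by MSD with anti-STAT4 antibodies after 15 min of 30 ng/mL IL2 in serum-starved NK92 cells pretreated 1 hr with compound.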

[6] = target: JAK2 kinase activity on STAT5 in TF1 cells (Homo sapiens, UniProt O60674); assay: pSTAT5 cell assay (MSD; TF1 cells, 30 ng/mL IL-3 stimulation); format: cell-based; conditions: 30 ng/mL IL-3, 15 minutes
JAK2 kinase activity on STAT5 in TF1 cells, sequence (O60674 whole entry): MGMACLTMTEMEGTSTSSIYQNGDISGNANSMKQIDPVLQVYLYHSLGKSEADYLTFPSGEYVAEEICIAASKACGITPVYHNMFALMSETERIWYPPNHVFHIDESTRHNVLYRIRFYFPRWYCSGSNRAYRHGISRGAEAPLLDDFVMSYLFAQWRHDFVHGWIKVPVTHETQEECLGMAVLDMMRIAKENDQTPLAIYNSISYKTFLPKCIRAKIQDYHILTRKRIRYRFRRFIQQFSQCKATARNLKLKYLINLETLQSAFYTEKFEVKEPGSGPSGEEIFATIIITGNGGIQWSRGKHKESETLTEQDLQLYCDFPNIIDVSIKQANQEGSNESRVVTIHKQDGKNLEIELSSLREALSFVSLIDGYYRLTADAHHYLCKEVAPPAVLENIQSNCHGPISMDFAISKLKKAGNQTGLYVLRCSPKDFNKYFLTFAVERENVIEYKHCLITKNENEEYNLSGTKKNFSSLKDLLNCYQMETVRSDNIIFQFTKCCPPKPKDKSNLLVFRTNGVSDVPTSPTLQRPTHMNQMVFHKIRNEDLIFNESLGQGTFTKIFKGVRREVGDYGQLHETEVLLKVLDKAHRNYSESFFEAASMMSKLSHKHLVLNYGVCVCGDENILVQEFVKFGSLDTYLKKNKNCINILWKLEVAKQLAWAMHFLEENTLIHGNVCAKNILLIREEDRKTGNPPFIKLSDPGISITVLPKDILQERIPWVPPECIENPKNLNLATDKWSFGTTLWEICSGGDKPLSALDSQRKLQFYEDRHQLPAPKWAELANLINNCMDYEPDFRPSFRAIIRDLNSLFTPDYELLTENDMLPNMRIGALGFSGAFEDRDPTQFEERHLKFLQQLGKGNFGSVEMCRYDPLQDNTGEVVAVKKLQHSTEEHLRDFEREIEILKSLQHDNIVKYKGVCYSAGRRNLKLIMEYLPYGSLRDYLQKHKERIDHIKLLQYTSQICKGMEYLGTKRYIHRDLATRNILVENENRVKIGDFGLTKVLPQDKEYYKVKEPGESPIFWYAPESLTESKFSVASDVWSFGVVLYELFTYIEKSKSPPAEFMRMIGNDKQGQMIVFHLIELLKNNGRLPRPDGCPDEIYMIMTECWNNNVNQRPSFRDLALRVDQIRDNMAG
Summary of the method: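 Serum-starved TF1 cells with native JAK2/STAT5 were pretreated 1 h with compound (10-point four-fold dilutions from 10 μM), then stimulated 15 min with 30 ng/mL IL-3. pSTAT5 in lysates quantified by MSD immunoassay; normalized percent activity fitted to a 4-parameter logistic curve for IC50.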

[7] = target: JAK1 kinase activity on STAT3 in TF1 cells (Homo sapiens, UniProt P23458); assay: pSTAT3 cell assay (MSD; TF1 cells, 30 ng/mL IL-6 stimulation); format: cell-based; conditions: 30 ng/mL IL-6, 15 minutes
JAK1 kinase activity on STAT3 in TF1 cells, sequence (P23458 whole entry): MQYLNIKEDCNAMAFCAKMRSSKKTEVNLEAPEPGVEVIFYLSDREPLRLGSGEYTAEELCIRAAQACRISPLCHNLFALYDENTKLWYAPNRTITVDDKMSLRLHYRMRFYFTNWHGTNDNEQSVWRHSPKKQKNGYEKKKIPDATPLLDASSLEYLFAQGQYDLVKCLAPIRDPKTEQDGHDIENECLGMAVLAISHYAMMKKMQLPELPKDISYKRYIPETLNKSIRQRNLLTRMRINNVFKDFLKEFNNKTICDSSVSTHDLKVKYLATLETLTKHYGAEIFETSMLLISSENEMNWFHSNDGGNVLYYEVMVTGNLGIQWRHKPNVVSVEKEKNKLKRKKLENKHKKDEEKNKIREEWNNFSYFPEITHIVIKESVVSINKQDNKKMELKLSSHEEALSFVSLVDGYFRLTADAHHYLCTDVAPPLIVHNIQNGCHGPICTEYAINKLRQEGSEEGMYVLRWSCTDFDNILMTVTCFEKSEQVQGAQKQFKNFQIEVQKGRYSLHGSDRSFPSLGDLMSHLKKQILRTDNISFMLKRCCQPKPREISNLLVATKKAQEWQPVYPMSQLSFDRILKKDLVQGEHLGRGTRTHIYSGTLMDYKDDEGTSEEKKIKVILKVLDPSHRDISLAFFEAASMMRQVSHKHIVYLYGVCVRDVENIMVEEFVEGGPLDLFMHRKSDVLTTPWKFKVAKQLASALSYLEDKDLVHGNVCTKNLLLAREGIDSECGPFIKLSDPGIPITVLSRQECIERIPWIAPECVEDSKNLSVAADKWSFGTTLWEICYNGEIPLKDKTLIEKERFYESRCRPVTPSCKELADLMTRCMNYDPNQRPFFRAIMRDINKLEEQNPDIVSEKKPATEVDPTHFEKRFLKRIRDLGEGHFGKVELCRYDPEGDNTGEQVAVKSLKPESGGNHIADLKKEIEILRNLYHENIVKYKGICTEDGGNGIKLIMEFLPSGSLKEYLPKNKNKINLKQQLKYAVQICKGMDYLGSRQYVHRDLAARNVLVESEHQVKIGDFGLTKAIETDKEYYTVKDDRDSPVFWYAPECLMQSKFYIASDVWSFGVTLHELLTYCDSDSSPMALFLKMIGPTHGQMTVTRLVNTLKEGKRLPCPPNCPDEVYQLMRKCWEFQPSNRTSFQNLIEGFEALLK
Summary of the method: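 Serum-starved TF1 cells were pretreated with compound for 1 hour (10-point, four-fold dilutions from 10 μM), then stimulated with IL-6 for 15 minutes. Lysates were assayed for pSTAT3 by MSD with anti-STAT3 antibodies; IC50 came from a 4-parameter logistic fit of normalized percent activity.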

| SMILES | IC50 [1] [nM] | IC50 [2] [nM] | IC50 [3] [nM] | IC50 [4] [nM] | IC50 [5] [nM] | IC50 [6] [nM] | IC50 [7] [nM] |
| --- | --- | --- | --- | --- | --- | --- | --- |
| C[C@@H]1CN(c2ccnn3cc(-c4cnc5[nH]ccc5c4)cc23)C(=O)[C@]1(C#N)C1CC1 [Example 64, (3R,4S)-1-(6-(1H-pyrrolo[2,3-b]pyridin-5-yl)pyrrolo[1,2-b]pyridazin-4-yl)-3-cyclopropyl-4-methyl-2-oxopyrrolidine-3-carbonitrile] | 5 to 20 | 100 to 1000 | 100 to 1000 | 100 to 1000 | 50 to 100 | 5000 to 10000 | 1000 to 5000 |
| C[C@@H]1CN(c2ccnn3cc(-c4cc[nH]n4)cc23)C(=O)[C@]1(C#N)C1CC1 [Example 66, (3R,4S)-1-(6-(1H-pyrazol-3-yl)pyrrolo[1,2-b]pyridazin-4-yl)-3-cyclopropyl-4-methyl-2-oxopyrrolidine-3-carbonitrile trifluoroacetate] | 5 to 20 | 100 to 1000 | 100 to 1000 | 100 to 1000 | > 100 | > 10000 | 5000 to 10000 |
| C[C@@H]1CN(c2ccnn3cc(-c4ccc5cnn(C)c5c4)cc23)C(=O)[C@]1(C#N)C1CC1 [Example 68, (3R,4S)-3-cyclopropyl-4-methyl-1-(6-(1-methyl-1H-indazol-6-yl)pyrrolo[1,2-b]pyridazin-4-yl)-2-oxopyrrolidine-3-carbonitrile] | 5 to 20 | < 100 | 100 to 1000 | 100 to 1000 | 50 to 100 | 5000 to 10000 | 100 to 1000 |
| C[C@@H]1CN(c2ccnn3cc(-c4c[nH]c5ncccc45)cc23)C(=O)[C@]1(C#N)C1CC1 [Example 72, (3R,4S)-1-(6-(1H-pyrrolo[2,3-b]pyridin-3-yl)pyrrolo[1,2-b]pyridazin-4-yl)-3-cyclopropyl-4-methyl-2-oxopyrrolidine-3-carbonitrile] | 5 to 20 | 100 to 1000 | 100 to 1000 | 100 to 1000 | > 100 | 5000 to 10000 | 1000 to 5000 |

Other lines, results leading:

| IC50 [1] [nM] | IC50 [2] [nM] | IC50 [3] [nM] | IC50 [4] [nM] | IC50 [5] [nM] | IC50 [6] [nM] | IC50 [7] [nM] | SMILES |
| --- | --- | --- | --- | --- | --- | --- | --- |
| 5 to 20 | 100 to 1000 | 100 to 1000 | 100 to 1000 | 50 to 100 | > 10000 | 1000 to 5000 | COc1cc(-c2cc3c(N4C[C@@H](C)[C@@](C#N)(C5CC5)C4=O)ccnn3c2)ccn1 [Example 65, (3R,4S)-3-cyclopropyl-1-(6-(2-methoxypyridin-4-yl)pyrrolo[1,2-b]pyridazin-4-yl)-4-methyl-2-oxopyrrolidine-3-carbonitrile] |
| 5 to 20 | 100 to 1000 | 100 to 1000 | 100 to 1000 | > 100 | 5000 to 10000 | 1000 to 5000 | Cc1ccc(-c2cc3c(N4C[C@@H](C)[C@@](C#N)(C5CC5)C4=O)ccnn3c2)cn1 [Example 67, (3R,4S)-3-cyclopropyl-4-methyl-1-(6-(6-methylpyridin-3-yl)pyrrolo[1,2-b]pyridazin-4-yl)-2-oxopyrrolidine-3-carbonitrile] |
| 5 to 20 | 100 to 1000 | 1000 to 5000 | 100 to 1000 | > 100 | > 10000 | 5000 to 10000 | C[C@@H]1CN(c2ccnn3cc(-c4ccnc(C(F)(F)F)c4)cc23)C(=O)[C@]1(C#N)C1CC1 [Example 69, (3R,4S)-3-cyclopropyl-4-methyl-2-oxo-1-(6-(2-(trifluoromethyl)pyridin-4-yl)pyrrolo[1,2-b]pyridazin-4-yl)pyrrolidine-3-carbonitrile] |
| 5 to 20 | 100 to 1000 | 100 to 1000 | 100 to 1000 | > 100 | > 10000 | 1000 to 5000 | Cc1cncc(-c2cc3c(N4C[C@@H](C)[C@@](C#N)(C5CC5)C4=O)ccnn3c2)c1 [Example 71, (3R,4S)-3-cyclopropyl-4-methyl-1-(6-(5-methylpyridin-3-yl)pyrrolo[1,2-b]pyridazin-4-yl)-2-oxopyrrolidine-3-carbonitrile] |
